Experimental data as given in ChEMBL document CHEMBL4706648, “Antitubercular 2-Pyrazolylpyrimidinones: Structure-Activity Relationship and Mode-of-Action Studies” (J Med Chem, 2021).
In brackets after ≈: the same amount, converted by molar mass. Activity calls are given as the source filed them. The calls are words filed in the database; no cut-off is given here.

How the values were obtained:
HepG2 [1] = assay: Antiproliferative activity against human HepG2 cells assessed as reduction in cell viability grown under galactose medium by MTT assay; type: functional, cell-based
[2] = system: Mycobacterium tuberculosis; assay: Antimycobacterial activity against mmpL3 gene silenced Mycobacterium tuberculosis H37Rv assessed as inhibition of bacterial growth grown under middlebrook 7H9 medium incubated for 7 days by alamar blue broth microdilution method; type: functional, organism-based; conditions: time 7.0 day
HepG2 [3] = assay: Antiproliferative activity against human HepG2 cells assessed as reduction in cell viability grown under glucose medium by MTT assay; type: functional, cell-based
[4] = system: Mycobacterium tuberculosis; type: functional; conditions: H37Rv, 168 h, time 7 day
[5] = Aqueous solubility of compound at pH 7.4; type: physicochemical; conditions: buffer
[6] = system: Mycobacterium tuberculosis; type: functional; conditions: H37Rv, 168 h, time 7 day; remark: listed apart in the source
[7] = system: Mycobacterium tuberculosis; type: functional; conditions: H37Rv, 168 h, time 7 day; remark: listed apart in the source
[8] = Solubility of compound at 3 uM; type: physicochemical
[9] = system: Mycobacterium tuberculosis; assay: Antimycobacterial activity against wild-type Mycobacterium tuberculosis H37Rv assessed as inhibition of bacterial growth grown under middlebrook 7H9 medium incubated for 7 days by alamar blue broth microdilution method; type: functional; conditions: 168 h, time 7 day
[10] = Metabolic stability in human liver microsomes assessed as parent compound remaining at 1 uM in presence of NADPH by LC-MS/MS analysis; type: ADME, Microsome
[11] = system: Mycobacterium tuberculosis; type: functional; conditions: H37Rv, 168 h, time 7 day; remark: listed apart in the source
[12] = Metabolic stability in rat liver microsomes assessed as parent compound remaining at 1 uM in presence of NADPH by LC-MS/MS analysis; type: ADME, Microsome
[13] = system: Mycobacterium tuberculosis; type: functional; conditions: H37Rv, 168 h, time 7 day; remark: listed apart in the source
[14] = Metabolic stability in mouse liver microsomes assessed as parent compound remaining at 1 uM in presence of NADPH by LC-MS/MS analysis; type: ADME, Microsome
[15] = molecular target: Voltage-gated inwardly rectifying potassium channel KCNH2 (Homo sapiens, UniProt Q12809); assay: Inhibition of human ERG
Sequence of Voltage-gated inwardly rectifying potassium channel KCNH2 (Q12809 whole entry): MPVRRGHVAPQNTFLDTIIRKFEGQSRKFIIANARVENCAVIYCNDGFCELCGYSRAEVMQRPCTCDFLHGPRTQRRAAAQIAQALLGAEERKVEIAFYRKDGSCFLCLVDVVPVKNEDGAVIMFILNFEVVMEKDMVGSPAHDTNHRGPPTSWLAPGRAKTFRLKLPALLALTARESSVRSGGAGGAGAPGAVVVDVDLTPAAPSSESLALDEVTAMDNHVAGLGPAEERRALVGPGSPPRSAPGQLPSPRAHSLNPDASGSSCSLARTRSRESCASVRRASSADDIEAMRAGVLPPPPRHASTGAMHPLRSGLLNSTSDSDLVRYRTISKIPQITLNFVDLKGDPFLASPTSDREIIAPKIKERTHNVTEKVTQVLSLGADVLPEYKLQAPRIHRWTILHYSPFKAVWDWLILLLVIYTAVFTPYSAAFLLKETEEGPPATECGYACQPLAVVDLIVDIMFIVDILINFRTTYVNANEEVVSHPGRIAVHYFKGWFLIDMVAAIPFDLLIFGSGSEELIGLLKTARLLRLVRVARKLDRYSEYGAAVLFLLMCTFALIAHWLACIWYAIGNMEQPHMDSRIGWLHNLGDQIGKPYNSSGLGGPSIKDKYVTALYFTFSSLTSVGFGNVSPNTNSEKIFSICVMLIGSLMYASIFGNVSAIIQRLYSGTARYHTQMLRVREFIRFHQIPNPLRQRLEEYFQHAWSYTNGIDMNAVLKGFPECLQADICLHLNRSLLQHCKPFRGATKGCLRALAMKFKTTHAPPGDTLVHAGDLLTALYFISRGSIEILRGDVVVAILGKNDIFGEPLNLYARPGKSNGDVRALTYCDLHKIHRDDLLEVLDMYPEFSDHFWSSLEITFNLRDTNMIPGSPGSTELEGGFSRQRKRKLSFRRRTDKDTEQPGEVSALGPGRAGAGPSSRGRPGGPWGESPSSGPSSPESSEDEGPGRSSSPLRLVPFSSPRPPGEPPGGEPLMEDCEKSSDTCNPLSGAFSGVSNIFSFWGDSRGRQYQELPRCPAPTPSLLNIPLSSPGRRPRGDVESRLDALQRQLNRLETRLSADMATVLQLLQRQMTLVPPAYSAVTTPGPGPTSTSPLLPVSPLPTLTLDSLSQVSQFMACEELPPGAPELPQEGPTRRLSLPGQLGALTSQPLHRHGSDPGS

[16] = system: Mycobacterium tuberculosis; type: functional; conditions: H37Rv, 168 h, time 7 day; remark: listed apart in the source
[17] = Lipophilicity, log D of the compound in n-octanol and phosphate buffer at pH 7.4 measured after 3 hrs by HPLC-DAD analysis; type: physicochemical
CHO = assay: Cytotoxicity against CHO cells assessed as reduction in cell viability by MTT assay; type: cell-based; conditions: Cricetulus griseus
[18] = system: Mycobacterium tuberculosis; assay: Upregulation of rv1347 in Mycobacterium tuberculosis H37Rv assessed as fold change incubated for 6 hrs by microarray based assay; type: functional
[19] = system: Mycobacterium tuberculosis; type: functional, H37Rv; conditions: time 7 day
[20] = system: Mycobacterium tuberculosis; type: functional; conditions: H37Rv, time 6.0 hrs
[21] = system: Mycobacterium tuberculosis; type: functional; conditions: H37Rv, time 6.0 hrs; remark: listed apart in the source
[22] = system: Mycobacterium tuberculosis; type: functional; conditions: H37Rv, 168 h, time 7 day; remark: listed apart in the source
[23] = Metal chelating activity assessed as Fe2+-compound complex formation by measuring shift in absorbance at 10 uM at 285 nm measured after 1 hr in presence of ferrous sulphate by UV-Visible spectrophotometric analysis
[24] = system: Mycobacterium tuberculosis; assay: Upregulation of rv3269 in Mycobacterium tuberculosis H37Rv incubated for 6 hrs by microarray based assay; type: functional
[25] = system: Mycobacterium tuberculosis; assay: Upregulation of rv1349 in Mycobacterium tuberculosis H37Rv assessed as fold change incubated for 6 hrs by microarray based assay; type: functional
[26] = system: Mycobacterium tuberculosis; type: functional; conditions: H37Rv, time 6.0 hrs; remark: listed apart in the source
[27] = Kinetic solubility of compound at 200 uM at pH 7.4 measured after 20 hrs by HPLC-DAD analysis; type: physicochemical; conditions: buffer, pH 7.4, 20 h
[28] = Metal chelating activity assessed as Fe2+-compound complex formation by measuring decrease in band intensity at 10 uM measured after 1 hr in presence of ferrous sulphate by UV-Visible spectrophotometric analysis
[29] = system: Mycobacterium tuberculosis; assay: Upregulation of rv2385 in Mycobacterium tuberculosis H37Rv incubated for 6 hrs by microarray based assay; type: functional
[30] = system: Mycobacterium tuberculosis; type: functional; conditions: H37Rv, time 6.0 hrs; remark: listed apart in the source
[31] = system: Mycobacterium tuberculosis; assay: Upregulation of rv2384 in Mycobacterium tuberculosis H37Rv incubated for 6 hrs by microarray based assay; type: functional
[32] = system: Mycobacterium tuberculosis; assay: Upregulation of rv1346 in Mycobacterium tuberculosis H37Rv assessed as fold change incubated for 6 hrs by microarray based assay; type: functional
[33] = system: Mycobacterium tuberculosis; type: functional; conditions: H37Rv, time 6.0 hrs; remark: listed apart in the source
[34] = Metabolic stability in human liver microsomes assessed as parent compound remaining after 30 mins; type: ADME, Microsome; conditions: 0.5 h
[35] = system: Mycobacterium tuberculosis; assay: Upregulation of rv1342 in Mycobacterium tuberculosis H37Rv assessed as fold change incubated for 6 hrs by microarray based assay; type: functional
[36] = system: Mycobacterium tuberculosis; assay: Upregulation of rv1348 in Mycobacterium tuberculosis H37Rv assessed as fold change incubated for 6 hrs by microarray based assay; type: functional
[37] = system: Mycobacterium tuberculosis; assay: Upregulation of rv3270 in Mycobacterium tuberculosis H37Rv incubated for 6 hrs by microarray based assay; type: functional
[38] = system: Mycobacterium tuberculosis; type: functional; conditions: H37Rv, time 6.0 hrs; remark: listed apart in the source
[39] = Metabolic stability in mouse liver microsomes assessed as parent compound remaining after 30 mins; type: ADME, Microsome; conditions: 0.5 h
[40] = system: Mycobacterium tuberculosis; type: functional; conditions: H37Rv, time 6.0 hrs; remark: listed apart in the source
[41] = system: Mycobacterium tuberculosis; assay: Upregulation of rv1344 in Mycobacterium tuberculosis H37Rv assessed as fold change incubated for 6 hrs by microarray based assay; type: functional
[42] = system: Mycobacterium tuberculosis; assay: Upregulation of rv1343 in Mycobacterium tuberculosis H37Rv assessed as fold change incubated for 6 hrs by microarray based assay; type: functional
[43] = system: Mycobacterium tuberculosis; assay: Upregulation of rv1345 in Mycobacterium tuberculosis H37Rv assessed as fold change incubated for 6 hrs by microarray based assay; type: functional
[44] = Metabolic stability in rat liver microsomes assessed as parent compound remaining after 30 mins; type: ADME, Microsome; conditions: 0.5 h
[45] = system: Mycobacterium tuberculosis; type: functional; conditions: H37Rv, time 6.0 hrs; remark: listed apart in the source

Compound: Cc1cc(C)n(-c2nc(O)cc(-c3ccccc3)n2)n1
- IC50 (HepG2 [1]): 4 µM
- Activity [2]: Active
- IC50 (HepG2 [3]): 4 µM
- MIC [4]: 0.02 µM (≈ 0.00533 µg/mL)
- solubility [5]: 10 µM (≈ 2.66 µg/mL)
- MIC [6]: 0.4 µM (≈ 0.107 µg/mL)
- MIC [7]: 1.5 µM (≈ 0.399 µg/mL)
- solubility at 3 µM [8]: 180 µM (≈ 47.9 µg/mL)
- MIC [9]: 1.7 µM (≈ 0.453 µg/mL)
- Stabilty [10]: 98%
- MIC [11]: 1.5 µM (≈ 0.399 µg/mL)
- Stabilty [12]: 69%
- MIC [13]: 0.3 µM (≈ 0.0799 µg/mL)
- Stabilty [14]: 22%
- IC50 [15]: > 30 µM
- MIC [16]: 0.6 µM (≈ 0.16 µg/mL)
- logD at 3 h [17]: 2.5
- IC50 (CHO): 8 µM

Compound: Cc1cc(Nc2ccccn2)n(-c2nc(C(F)(F)F)cc(=O)[nH]2)n1
- fold change (FC) [18]: 2
- fold change (FC) [19]: >=32
- Activity [20]: Active
- Activity [21]: Active
- MIC [22]: 0.12 µM (≈ 0.0404 µg/mL)
- deltaA [23]: 300 nm
- Activity [24]: Active
- fold change (FC) [25]: 2
- Activity [26]: Active
- Kinetic_solubility [27]: 25 µM
- Activity [28]: Active
- Activity [29]: Active
- Activity [30]: Active
- Activity [31]: Active
- fold change (FC) [32]: 2
- Activity [33]: Active
- Stabilty [34]: > 99%
- solubility [5]: 25 µM (≈ 8.41 µg/mL)
- fold change (FC) [35]: 2
- fold change (FC) [36]: 2
- Activity [37]: Active
- Activity [38]: Active
- Stabilty [39]: > 99%
- MIC [11]: 0.9 µM (≈ 0.303 µg/mL)
- Activity [40]: Active
- fold change (FC) [41]: 2
- fold change (FC) [42]: 2
- fold change (FC) [43]: 2
- IC50 (CHO): 23 µM
- Stabilty [44]: 96%
- Activity [45]: Active
